Key:
ALOMY [1] = experiment: Post-emergence herbicidal action against ALOMY; type: in vivo, Alopecurus myosuroides; details: dosage 20 g/ha, visual assessment about 3 weeks after treatment vs untreated controls
Method in brief: (§1)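 Spray, one-leaf stage: WP or EC compound in water, 600–800 l/ha, 0.2% wetting agent. Plants held about 3 weeks in the greenhouse, then visually rated in percent of kill compared with untreated controls.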

VERPE [2] = experiment: Post-emergence herbicidal action against VERPE; type: in vivo, Veronica persica
Method in brief: as §1

ECHCG [3] = experiment: Post-emergence herbicidal action against ECHCG; type: in vivo, Echinochloa crus-galli
Method in brief: as §1

VIOTR [4] = experiment: Pre-emergence herbicidal action against VIOTR; type: in vivo, Viola tricolor; details: for pest or weed control at 20 g/ha / pest or weed control at 80 g/ha: Viola tricolor, 504 h; for pest or weed control at 20 g/ha: dosage 20 g/ha
Method in brief: (§2)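 Pre-emergence soil-surface spray of formulated compound (WP or EC; 600 to 800 l/ha; 0.2% wetting agent) over seeds sown in sandy loam. After 3 weeks under greenhouse conditions, damage is estimated visually in percent against untreated plants.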

DIGSA [5] = experiment: Post-emergence herbicidal action against DIGSA; type: in vivo, Digitaria sanguinalis
Method in brief: as §1

SETVI [6] = experiment: Pre-emergence herbicidal action against SETVI; type: in vivo, Setaria viridis
Method in brief: as §2

AMARE [7] = experiment: Post-emergence herbicidal action against AMARE; type: in vivo, Amaranthus retroflexus; details: 20 g/ha, visual assessment about 3 weeks after treatment, 100% = plants have died, 0% = like control plants
Method in brief: as §1

PHBPU [8] = experiment: Pre-emergence herbicidal action against PHBPU; type: in vivo, Pharbitis purpurea
Method in brief: as §2

MATIN [9] = experiment: Post-emergence herbicidal action against MATIN; type: in vivo, Matricaria inodora
Method in brief: as §1

MATIN [10] = experiment: Pre-emergence herbicidal action against MATIN; type: in vivo, Matricaria inodora
Method in brief: as §2

AVEFA = experiment: Pre-emergence herbicidal action against AVEFA; type: in vivo, Avena fatua
Method in brief: as §2

SETVI [11] = experiment: Post-emergence herbicidal action against SETVI; type: in vivo, Setaria viridis
Method in brief: as §1

DIGSA [12] = experiment: Pre-emergence herbicidal action against DIGSA; type: in vivo, Digitaria sanguinalis
Method in brief: as §2

ABUTH [13] = experiment: Pre-emergence herbicidal action against ABUTH; type: in vivo, Abutilon theophrasti
Method in brief: as §2

AMARE [14] = experiment: Pre-emergence herbicidal action against AMARE; type: in vivo, Amaranthus retroflexus; details: for pest or weed control at 20 g/ha / pest or weed control at 80 g/ha: Amaranthus retroflexus, 504 h
Method in brief: as §2

ABUTH [15] = experiment: Post-emergence herbicidal action against ABUTH; type: in vivo, Abutilon theophrasti; details: visual assessment about 3 weeks after treatment vs untreated controls
Method in brief: as §1

ALOMY [16] = experiment: Pre-emergence herbicidal action against ALOMY; type: in vivo, Alopecurus myosuroides; details: 80 g/ha, pre-emergence, scored visually after 3 weeks vs untreated controls (100% = plants have died, 0% = like control plants)
Method in brief: as §2

ECHCG [17] = experiment: Pre-emergence herbicidal action against ECHCG; type: in vivo, Echinochloa crus-galli
Method in brief: as §2

VERPE [18] = experiment: Pre-emergence herbicidal action against VERPE; type: in vivo, Veronica persica; details: dosage 80 g/ha; for pest or weed control at 80 g/ha: Veronica persica, 504 h
Method in brief: as §2

PHBPU [19] = experiment: Post-emergence herbicidal action against PHBPU; type: in vivo, Pharbitis purpurea; details: dosage 20 g/ha
Method in brief: as §1

VIOTR [20] = experiment: Post-emergence herbicidal action against VIOTR; type: in vivo, Viola tricolor
Method in brief: as §1

POLCO = experiment: Pre-emergence herbicidal action against POLCO; type: in vivo, Polygonum convolvulus; details: Fallopia convolvulus, 504 h
Description: Seeds of monocotyledonous and dicotyledonous weed plants and crop plants are laid out in sandy loam soil in wood-fiber pots and covered with soil. The compounds of the invention, formulated in the form of wettable powders (WP) or as emulsion concentrates (EC), are then applied to the surface of the covering soil in the form of an aqueous suspension or emulsion at a water application rate equivalent to 600 to 800 l/ha, with addition of 0.2% wetting agent. After the treatment, the pots are placed in a greenhouse and kept under good growth conditions for the trial plants. The damage to the test plants is scored visually after a test period of 3 weeks by comparison with untreated controls (herbicidal activity in percent (%): 100% activity=the plants have died, 0% activity=like control plants). […] The tables below illustrate, in an illustrative manner, the post-emergence herbicidal action of the compounds of the invention, the herbicidal activity being stated in percent.

[21] = Setaria viridis, 504 h, dosage 20 g/ha
[22] = Setaria viridis, 504 h, dosage 80 g/ha
[23] = Tripleurospermum inodorum, 504 h, dosage 20 g/ha
[24] = Digitaria sanguinalis, 504 h, dosage 80 g/ha
[25] = Abutilon theophrasti, 504 h, 80 g/ha, scored visually after 3 weeks vs untreated controls (100% = plants have died, 0% = like control plants)
[26] = 20 g/ha, scored visually after 3 weeks vs untreated controls, 100% = plants have died, 0% = like control plants
[27] = 80 g/ha, scored visually after 3 weeks vs untreated controls, 100% = plants have died, 0% = like control plants
[28] = Abutilon theophrasti, 504 h, dosage 20 g/ha
[29] = 80 g/ha, scored visually after 3 weeks vs untreated controls (100% = plants have died, 0% = like control plants)

## CCNC(=O)c1c(C(F)(F)F)ccc(C(=O)Nc2nnnn2C)c1OC [Example 1-57]
ALOMY [1]; Alopecurus myosuroides, 504 h
  pest or weed control at 20 g/ha: 80%
VERPE [2]; Veronica persica, 504 h, 5 g/ha
  pest or weed control at 5 g/ha: 80%
VERPE [2]; Veronica persica, 504 h, 20 g/ha
  pest or weed control at 20 g/ha: 90%
ECHCG [3]; Echinochloa crus-galli, 504 h, dosage 5 g/ha
  pest or weed control at 5 g/ha: 80%
ECHCG [3]; Echinochloa crus-galli, 504 h, dosage 20 g/ha
  pest or weed control at 20 g/ha: 100%
VIOTR [4]
  pest or weed control at 20 g/ha: 100%
VIOTR [4]; dosage 80 g/ha
  pest or weed control at 80 g/ha: 100%
DIGSA [5]; Digitaria sanguinalis, 504 h, 5 g/ha
  pest or weed control at 5 g/ha: 100%
DIGSA [5]; Digitaria sanguinalis, 504 h, 20 g/ha
  pest or weed control at 20 g/ha: 100%
SETVI [6]; [21]
  pest or weed control at 20 g/ha: 90%
SETVI [6]; [22]
  pest or weed control at 80 g/ha: 100%
AMARE [7]; Amaranthus retroflexus, 504 h
  pest or weed control at 20 g/ha: 100%
PHBPU [8]; Ipomoea purpurea, 504 h, dosage 20 g/ha
  pest or weed control at 20 g/ha: 80%
PHBPU [8]; Ipomoea purpurea, 504 h, dosage 80 g/ha
  pest or weed control at 80 g/ha: 80%
MATIN [9]; Tripleurospermum inodorum, 504 h, dosage 5 g/ha
  pest or weed control at 5 g/ha: 80%
MATIN [9]; [23]
  pest or weed control at 20 g/ha: 90%
MATIN [10]; [23]
  pest or weed control at 20 g/ha: 90%
MATIN [10]; Tripleurospermum inodorum, 504 h, dosage 80 g/ha
  pest or weed control at 80 g/ha: 100%
AVEFA; Avena fatua, 504 h, 80 g/ha, pre-emergence
  pest or weed control at 80 g/ha: 90%
SETVI [11]; Setaria viridis, 504 h, dosage 5 g/ha
  pest or weed control at 5 g/ha: 100%
SETVI [11]; [21]
  pest or weed control at 20 g/ha: 100%
DIGSA [12]; Digitaria sanguinalis, 504 h, dosage 20 g/ha
  pest or weed control at 20 g/ha: 100%
DIGSA [12]; [24]
  pest or weed control at 80 g/ha: 100%
ABUTH [13]; [25]
  pest or weed control at 80 g/ha: 100%
ABUTH [13]; Abutilon theophrasti, 504 h, dosage 20 g/ha, scored visually after 3 weeks vs untreated controls, 100% = plants have died, 0% = like control plants, read-out: Pre-emergence action against ABUTH (herbicidal activity in percent)
  pest or weed control at 20 g/ha: 100%
AMARE [14]; [26]
  pest or weed control at 20 g/ha: 100%
AMARE [14]; [27]
  pest or weed control at 80 g/ha: 100%
ABUTH [15]; Abutilon theophrasti, 504 h, dosage 5 g/ha
  pest or weed control at 5 g/ha: 90%
ABUTH [15]; [28]
  pest or weed control at 20 g/ha: 90%
ALOMY [16]; Alopecurus myosuroides, 504 h
  pest or weed control at 80 g/ha: 80%
ECHCG [17]; Echinochloa crus-galli, 504 h, 20 g/ha
  pest or weed control at 20 g/ha: 90%
ECHCG [17]; Echinochloa crus-galli, 504 h, 80 g/ha
  pest or weed control at 80 g/ha: 90%
VERPE [18]
  pest or weed control at 80 g/ha: 80%
PHBPU [19]; Ipomoea purpurea, 504 h
  pest or weed control at 20 g/ha: 90%
VIOTR [20]; Viola tricolor, 504 h, 5 g/ha
  pest or weed control at 5 g/ha: 100%
VIOTR [20]; Viola tricolor, 504 h, 20 g/ha
  pest or weed control at 20 g/ha: 100%

## CC(NC(=O)c1c(C(F)(F)F)ccc(C(=O)Nc2nnnn2C)c1Cl)C1CC1 (stereo not shown) [Example 1-135]
ALOMY [1]
  Post-emergence action against ALOMY in %: 90%
VERPE [2]; 5 g/ha
  Post-emergence action against VERPE in %: 80%
VERPE [2]; 20 g/ha
  Post-emergence action against VERPE in %: 90%
ECHCG [3]; dosage 5 g/ha
  Post-emergence action against ECHCG in %: 80%
ECHCG [3]; dosage 20 g/ha
  Post-emergence action against ECHCG in %: 100%
VIOTR [4]; dosage 80 g/ha
  Pre-emergence action against VIOTR in %: 100%
DIGSA [5]; 20 g/ha
  Post-emergence action against DIGSA: 90%
SETVI [6]; dosage 80 g/ha
  Pre-emergence action against SETVI in %: 100%
AMARE [7]
  Post-emergence action at 20 g/ha against AMARE in %: 90%
PHBPU [8]; dosage 80 g/ha
  Pre-emergence action against PHBPU in %: 80%
MATIN [9]; dosage 5 g/ha
  Post-emergence action against MATIN in %: 80%
MATIN [9]; dosage 20 g/ha
  Post-emergence action against MATIN in %: 90%
MATIN [10]; dosage 20 g/ha
  Pre-emergence action against MATIN in %: 90%
MATIN [10]; dosage 80 g/ha
  Pre-emergence action against MATIN in %: 100%
AVEFA; 20 g/ha, scored visually after 3 weeks, 100% = plants have died, 0% = like control plants
  Pre-emergence action against AVEFA: 80%
AVEFA; 80 g/ha, pre-emergence
  Pre-emergence action against AVEFA in %: 100%
SETVI [11]; dosage 20 g/ha
  Post-emergence action against SETVI in %: 80%
DIGSA [12]; dosage 20 g/ha
  Pre-emergence action against DIGSA in %: 90%
DIGSA [12]; dosage 80 g/ha
  Pre-emergence action against DIGSA in %: 100%
ABUTH [13]; [29]
  Pre-emergence action against ABUTH (herbicidal activity): 100%
ABUTH [13]; dosage 20 g/ha, scored visually after 3 weeks vs untreated controls, 100% = plants have died, 0% = like control plants
  Pre-emergence action against ABUTH (herbicidal activity in percent): 100%
AMARE [14]; [26]
  Pre-emergence action against AMARE in %: 100%
AMARE [14]; [29]
  Pre-emergence action against AMARE in %: 100%
ABUTH [15]; dosage 20 g/ha
  Post-emergence action against ABUTH in %: 80%
ALOMY [16]
  Pre-emergence action against ALOMY (herbicidal activity): 90%
ECHCG [17]; 20 g/ha
  Pre-emergence action against ECHCG in %: 80%
ECHCG [17]; 80 g/ha
  Pre-emergence action against ECHCG in %: 100%
VERPE [18]
  Pre-emergence action against VERPE in %: 90%
PHBPU [19]
  Post-emergence action against PHBPU in %: 90%
VIOTR [20]; 5 g/ha
  Post-emergence action against VIOTR in %: 80%
VIOTR [20]; 20 g/ha
  Post-emergence action against VIOTR in %: 90%

## CC(=O)NC(=O)c1c(C(F)(F)F)ccc(C(=O)Nc2nnnn2C)c1Cl [Example 1-337]
VIOTR [4]
  pest or weed control at 20 g/ha: 80%
VIOTR [4]; dosage 80 g/ha
  pest or weed control at 80 g/ha: 80%
SETVI [6]; [22]
  pest or weed control at 80 g/ha: 90%
POLCO; dosage 20 g/ha
  pest or weed control at 20 g/ha: 80%
POLCO; dosage 80 g/ha
  pest or weed control at 80 g/ha: 80%
DIGSA [12]; [24]
  pest or weed control at 80 g/ha: 100%
ABUTH [13]; [25]
  pest or weed control at 80 g/ha: 100%
AMARE [14]; [26]
  pest or weed control at 20 g/ha: 90%
AMARE [14]; [27]
  pest or weed control at 80 g/ha: 100%
ABUTH [15]; [28]
  pest or weed control at 20 g/ha: 80%
VERPE [18]
  pest or weed control at 80 g/ha: 90%
VIOTR [20]; Viola tricolor, 504 h, 20 g/ha
  pest or weed control at 20 g/ha: 80%
